From a melting point compilation (Tetko et al.; mined from patent text by program, amines drawn as free bases though some values may be those of a salt)

melting point | Structure (SMILES)
321 °C | CCC(=O)Nc1cccc2c1C(=O)c1cccc(NC(=O)CC)c1C2=O
194 to 196 °C | CC(=O)CCCn1c(C)nc2c(N)nc3ccccc3c21
112 to 115 °C | CCOC(=O)C(CC)=C(C)NC(=O)Nc1cc(C(=O)OC(C)C)c(Cl)cc1F
198 to 199 °C | COC(=O)c1cccc(Cn2c(C(=O)NC(N)=S)cc3cc(C)cc(C)c32)c1
56 °C | Cc1ccccc1OCc1ccccc1N
213 °C | CCOc1ccccc1C1CC(C(C)(C)C)=NN1c1ccc(C(=O)O)cc1 (stereo not given)
57 to 58 °C | CCC(=O)[C@@H](NC(=O)OCc1ccccc1)[C@@H](C)CC
49 to 50 °C | CC(C)N(CCCN1C(=O)C(=O)c2ccccc21)C(C)C
54 °C | CN(C(=O)COc1nnc(C(F)(F)F)s1)c1ccccc1
98 to 99 °C | COC(=O)C1(CCCN2CCN(c3ccccc3)CC2)Oc2ccccc2CCC1O (stereo not given)
98 to 100 °C | CCOC(=O)Cc1cc(O)nc(N(CC)CC)n1
164 to 165 °C | COc1ccc(/C(=C\C=C\C(=O)NCCCCc2cccnc2)c2ccccc2OC)cc1
131 °C | CNC(=O)c1cccc(NC(=O)Cc2cccc(C)c2)c1
61 to 63 °C | CCOC(=O)C(=O)Nc1cccc(C)n1

The next lines start with the compound.

Structure (SMILES) | melting point
CC1(C)[C@@H](CN2CCCCC2)CC[C@@]1(C)NCC(=O)N1C[C@@H](F)C[C@H]1C#N | 100 to 103 °C
CCOc1nn(-c2ccc(C(F)(F)F)cn2)cc1CCCO | 85 to 86 °C
C#Cc1cnn2c(C(F)F)cc(-c3cccc(C(F)(F)F)c3)nc12 | 149 °C
O=[N+]([O-])c1ccc(Oc2ccc(C(F)(F)F)cc2Cl)cc1Oc1ccc(C(F)(F)F)cc1Cl | 111 to 113 °C
COc1ccc(-c2ccncc2OC2SCC(O)C(O)C2O)cc1 (stereo not given) | 228 °C
COc1cc(NS(=O)(=O)c2ccc(N3CCNC3=O)cc2)cc(OC)c1OC | 233 to 235 °C
Cc1cc(C(=O)O)ccc1C1=CCC2CC1C2(C)C (stereo not given) | 139 to 140 °C
COc1cc(-c2nc(C)no2)cc2oc(=O)c(C)c(C)c12 | 172 to 174 °C
CN1CC(CCN2CCN(c3ncccn3)CC2)c2nc3ccccc3n2C1=O (stereo not given) | 161 to 162 °C
COc1cc(F)ccc1C(=O)Nc1cc(-c2c(-c3ccc(F)c(C)c3)nc3cccnn23)ccn1 | 251 to 252 °C
Cc1cc(C2=NN(C(=O)NC3CC3)C(C)Cc3cc4c(cc32)OCO4)ccc1[N+](=O)[O-] (stereo not given) | 171 to 175 °C
CCC1(C)CC2(C(=O)N(C)C(=O)N2C)C(C)C(C)(CC)N1C (stereo not given) | 77 to 88 °C
CCNc1cc(Cl)nc(C#N)c1N | 150 °C
ON=C1CCOc2cc(Cl)c(Cl)cc21 | 192 to 193 °C
COc1ccc(CCNc2ncnc3occ(C)c23)cc1 | 184 °C
Cc1ccc(-c2c(NS(=O)(=O)c3ccc(C(C)(C)C)cc3)ncnc2OCCOc2ccc(C(C)O)cc2)cc1 (stereo not given) | 176 to 178 °C
O=[N+]([O-])c1ccc(F)c(-c2ccc3ncccc3c2)c1F | 152 to 153 °C
CC(=O)NC[C@H]1CN(c2ccc(N3CCC(N)(C#N)CC3)c(F)c2)C(=O)O1 | 94 to 96 °C
COC(=O)Nc1cccc(F)c1I | 80 to 82 °C
Cc1c(CCNC(=O)OC(C)(C)C)c2cc(S(=O)(=O)c3cc(F)cc(F)c3)ccc2n1C | 182 to 186 °C
O=C(Nc1ccc2ccc(Oc3ccccc3)nc2n1)c1cccc(Br)c1 | 194 °C
Cc1c(C2=CCC(c3ccccc3)(N(C)C)CC2)[nH]c2ccc(C#N)cc12 (stereo not given) | 180 to 185 °C
C#CCCCOc1c(C)cc(-c2nc(C)no2)cc1C | 38 to 40 °C
CC(C)c1ccc(-n2nnc(-c3ccc(O)cc3)n2)cc1 | 158 to 160 °C
NS(=O)(=O)c1cccc(-c2cc(-c3nc(-c4ccc(Cl)cc4)cc(C(F)(F)F)n3)ccn2)c1 | 182 °C
CC(C)(C)ON(O)C(=O)C(C)(C)CSc1ccc(Oc2ccc(Cl)cn2)cc1 | 90.8 to 91.9 °C
